Legend:
B cell function = B cell function in vivo (TNP-Ficoll immunization, antibody production); parameters: species or system mouse; conditions: mice immunized with TNP-Ficoll; 70 mg/kg GDC0941; 30, 60 or 120 mg/kg Compound A for 7 days (FIG. 8)
Protocol: Antibody production was measured as a percentage of control group that were treated with vehicle.

[1] = test system: MDA-MB-361 (PI3Kα/HER2 carcinoma) tumors; test: In vivo efficacy in MDA-MB-361 xenograft mouse model of breast cancer; parameters: species or system nude mice; conditions: 70 mg/kg Pan-PI3K inhibitor, 60 mg/kg compound A, FIG. 9 left panel
Protocol: Blood glucose was monitored periodically following administration of treatment.
Treatment of tumors (MDA-MB-361) with compounds was discontinued on Day 30. Tumors were measured every 2-5 days.

marginal zone B cells = test: Marginal zone B cells in mouse spleen (FACS); conditions: 70 mg/kg Pan-PI3K inhibitor, 60 mg/kg Compound A; spleens harvested 2 hrs after last dose; FIG. 9
Protocol: The effect of the compounds on the localization/viability of marginal zone B cells in the spleen is also evaluated at the conclusion of treatment.
Spleens were harvested 2 hrs after the last dose, processed and stained with appropriate antibodies (marginal zone B cell: B220+; CD23−; CD21hi) and analyzed for staining on GUAVA EasyCyte FACS machine using Guava Cytosoft 5.2 software.

MZB cells = MZB cells in mouse spleen; format: in vivo; conditions: 70 mg/kg Pan-PI3K inhibitor compared to 60 mg/kg Compound A (FIG. 9 right)
breast cancer model = test: Preclinical breast cancer model (tumor weight / volume); format: in vivo; conditions: for tumor weight of a breast cancer model: 70 mg/kg Pan-PI3K inhibitor, 60 mg/kg compound A (FIG. 9 left)
[2] = test system: anti-TNP antibody production; test: TNP-Ficoll T-cell independent B-cell activation assay; format: in vivo; conditions: mice, 7 days; 70 mg/kg GDC0941; 30, 60, 120 mg/kg Compound A; ELISA; FIG. 8
Protocol: To test the effects of the compounds of the present invention in suppressing T cell independent antibody production, the TNP-Ficoll B-cell activation assay is used as described herein. Compounds of the present invention are dissolved in an appropriate vehicle (e.g. 5% 1-methyl-2-pyrrolidinone, 85% polyethylene glycol 400, 10% Solutor). Compounds are administered orally approximately 1 hr before TNP-Ficoll treatment to 4-10 week old mice. To study the effects of the compounds on B-cell activation, one set of mice are grouped according to the following table:
Four animals in group 1, and eight animals in groups 2 to 7 are euthanized in CO2 2 hours after the last compound administration on day 7. […]
Serum samples are analyzed for anti-TNP antibody titers by ELISA as described herein. […] HRP substrate (200 μl ABTS solution+30% H2O2+10 ml citrate buffer) is added to each well at 100 μl/well, incubated 2-20 minutes in the dark and the amount of anti-TNP IgG3 is determined spectrophotometrically at 405 nm. Similarly, anti-TNP IgM and total anti-TNP Ab are determined using anti-mouse IgM-HRP and anti-mouse Ig-HRP respectively.
Antibody production was measured using ELISA and plotted as as a percentage of control group that were treated with vehicle.

[3] = test system: pAKT(S473) in MDA-MB-361 cells; test: Western blot of Akt phosphorylation (pAKT) in MDA-MB-361 cells; format: cell-based, human; conditions: about 2 hours treatment, read-out: inhibition of pAKT, IC50
Protocol: (§1) Cells comprising one or more mutations in PI3Kα, including but not limited to breast cancer cells (e.g., MDA-MB-361, T47D, SKOV-3), and cells comprising one or more mutations in PTEN including but not limited to prostate cancer cells (e.g., PC3), are typically grown in cell growth media such as DMEM supplemented with fetal bovine serum and/or antibiotics, and grown to confluency. Cells are then treated with various concentrations of test compound for about 2 hours and subsequently lysed in cell lysis buffer. Lysates are subjected to SDS-PAGE followed by Western blot analysis to detect downstream signaling markers, including but not limited to pAKT(S473), pAKT(T308), pS6, and p4E-BP1.
MDA-MB-361(PIK3CA-E545K), MDA-MB-453 (PIK3CA-H1047R), and SK-Br3 (Her2) cells were treated with various concentrations of Compound A for 2 h and subsequently lysed. Lysates were subjected to SDS-PAGE followed by Western blot analysis as described above to detect downstream pathway markers.

PI3K α = PI3K α (Homo sapiens, UniProt P42336); test: PI 3-Kinase (human) HTRF assay, PI3K α; conditions: chart (FIG. 6C)
[4] = test system: Akt, S6, 4EBP phosphorylation; test: Western blot of PI3K pathway phosphorylation (Akt, S6, 4EBP); format: cell-based
human tumor cell lines = test: Tumor cell line proliferation assay; format: cell-based; conditions: chart (FIG. 13)
Protocol: The ability of one or more subject compounds to inhibit tumor cell line proliferation is determined according to standard procedures known in the art. For instance, an in vitro cellular proliferation assay can be performed to measure the metabolic activity of live cells. The assay is performed in a 96 well microtiter plate using Alamar Blue reduction. Human tumor cell lines are obtained from ATCC (e.g., MCF7, U-87 MG, MDA-MB-468, PC-3), grown to confluency in T75 flasks, trypsinized with 0.25% trypsin, washed one time with Tumor Cell Media (DMEM+10% FBS), and plated in 90 ul at 5,000 cells/well in Tumor Cell Media. A compound disclosed herein is diluted in Tumor Cell Media and added in a 10 ul volume. Plates are incubated for 72 hours at 37 C and 5% CO2. A volume of 10 uL of Alamar Blue reagent is added to each well and plates are incubated for 3 hours at 37 C and 5% CO2. Alamar Blue fluoresce is read at 560Ex/590Em, and IC50 values are calculated using GraphPad Prism 5.

MDA-MB-361 cells = test: Cell proliferation (CellTiter-Glo) in MDA-MB-361 cells; format: cell-based, human; conditions: read-out: inhibition of cell proliferation, IC50
Protocol: as §1
Cells were seeded at 5000-10,000 per well in a 96 well flat bottom plate 90 ul growth media. Pre-diluted compound (at 10 times the final concentration) or DMSO (control) was added. The compounds were prepared such that the dose range extended from a final concentration of 30 μM to 14 nM via 3-fold serial dilutions (8 point curve). The final DMSO concentration was 0.3%. […] After 72 hours, proliferation was measured using CellTiter-Glo Luminescent reagent (Promega, PR-G7573). […] Contents were mixed for 30 minutes on an orbital shaker to lyse cells Luminescence was read on a PerkinElmer EnVision plate reader. […] Inhibition % was calculated as: 1−(cells+inhibitor)−background signal)/(cells+DMSO)−background signal)[…].

[5] = test system: 786-O human kidney carcinoma tumors; test: In vivo efficacy in 786-O xenograft model; parameters: species or system nude mice; conditions: oral, FIG. 6
[6] = test system: pAKT(S473), pAKT(T308) in PC3 cells; test: Western blot of Akt phosphorylation (pAKT) in PC3 cells; format: cell-based; conditions: PC3 cells, about 2 hours treatment, read-out: inhibition of pAKT, IC50
Protocol: as §1

Chain of PI3K α (P42336 whole entry): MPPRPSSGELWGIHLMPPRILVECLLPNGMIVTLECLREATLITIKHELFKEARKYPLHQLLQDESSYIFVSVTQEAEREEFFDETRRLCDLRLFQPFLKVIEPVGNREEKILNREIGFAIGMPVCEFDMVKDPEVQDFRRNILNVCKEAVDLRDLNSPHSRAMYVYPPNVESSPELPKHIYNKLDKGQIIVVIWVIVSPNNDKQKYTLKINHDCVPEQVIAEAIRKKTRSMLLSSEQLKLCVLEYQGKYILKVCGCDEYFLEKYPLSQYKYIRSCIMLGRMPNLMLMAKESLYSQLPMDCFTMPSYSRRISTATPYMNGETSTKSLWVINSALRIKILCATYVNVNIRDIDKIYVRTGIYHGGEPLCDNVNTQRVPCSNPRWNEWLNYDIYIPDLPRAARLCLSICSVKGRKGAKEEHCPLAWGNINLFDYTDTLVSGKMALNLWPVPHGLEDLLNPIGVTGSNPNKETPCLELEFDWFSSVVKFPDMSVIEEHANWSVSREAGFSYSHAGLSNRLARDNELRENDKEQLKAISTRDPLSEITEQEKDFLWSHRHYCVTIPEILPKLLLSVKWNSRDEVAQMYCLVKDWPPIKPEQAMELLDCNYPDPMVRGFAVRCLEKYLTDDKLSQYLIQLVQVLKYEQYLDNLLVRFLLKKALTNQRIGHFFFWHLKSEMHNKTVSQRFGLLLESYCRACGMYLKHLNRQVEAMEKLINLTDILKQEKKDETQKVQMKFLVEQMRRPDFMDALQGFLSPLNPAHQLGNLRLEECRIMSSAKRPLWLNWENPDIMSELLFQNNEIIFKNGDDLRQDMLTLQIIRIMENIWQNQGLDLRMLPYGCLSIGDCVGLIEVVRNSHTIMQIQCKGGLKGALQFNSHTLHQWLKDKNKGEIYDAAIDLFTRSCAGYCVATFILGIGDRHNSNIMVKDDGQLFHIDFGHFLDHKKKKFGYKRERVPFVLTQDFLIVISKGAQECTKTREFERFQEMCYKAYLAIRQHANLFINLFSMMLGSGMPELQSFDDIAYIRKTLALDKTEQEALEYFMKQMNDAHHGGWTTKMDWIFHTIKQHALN
Chain of PI3K α (P27986 whole entry partner): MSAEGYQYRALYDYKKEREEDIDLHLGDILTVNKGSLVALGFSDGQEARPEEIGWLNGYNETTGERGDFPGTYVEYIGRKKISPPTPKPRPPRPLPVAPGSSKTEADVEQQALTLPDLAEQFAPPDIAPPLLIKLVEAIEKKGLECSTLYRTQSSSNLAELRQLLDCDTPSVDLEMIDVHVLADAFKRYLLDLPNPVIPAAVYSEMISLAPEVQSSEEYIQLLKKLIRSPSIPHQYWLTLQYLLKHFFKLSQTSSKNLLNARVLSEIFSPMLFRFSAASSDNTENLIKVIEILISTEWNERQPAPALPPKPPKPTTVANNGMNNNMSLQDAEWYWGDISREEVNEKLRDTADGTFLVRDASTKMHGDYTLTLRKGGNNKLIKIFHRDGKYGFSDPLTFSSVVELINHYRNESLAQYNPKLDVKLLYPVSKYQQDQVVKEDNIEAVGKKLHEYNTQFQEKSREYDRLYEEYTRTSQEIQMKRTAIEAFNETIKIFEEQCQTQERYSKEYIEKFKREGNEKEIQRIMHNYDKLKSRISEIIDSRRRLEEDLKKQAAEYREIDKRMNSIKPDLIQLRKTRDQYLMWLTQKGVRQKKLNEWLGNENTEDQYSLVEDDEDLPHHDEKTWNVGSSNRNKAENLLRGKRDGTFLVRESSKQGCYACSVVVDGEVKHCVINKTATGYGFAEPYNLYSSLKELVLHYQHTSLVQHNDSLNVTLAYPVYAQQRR

Structure (SMILES) | B cell function in vivo (antibody production) (B cell function) | tumor weight [1] | presence (localization/viability) of marginal zone B cells in spleen (marginal zone B cells) | presence of MZB cells in mouse spleen (MZB cells) | tumor weight of a breast cancer model (breast cancer model) | B cell function in vivo (antibody production after TNP-Ficoll) [2] | IC50 [3] | specificity in inhibiting PI3K α over mTOR and other PI3K isoforms (PI3K α) | inhibition of the PI3K pathway in cell lines with elevated PI3K α activity ([4]; MDA-MB-361, MDA-MB-453, SKBr3 breast cancer cells, western blot (FIG. 11)) | inhibition of Akt, S6, and 4EBP phosphorylation ([4]; PTEN mutant cells, western blot (FIG. 6B)) | Akt phosphorylation at serine 473 ([4]; PTEN-mutant cell line (FIG. 12B)) | downregulating Akt and S6 phosphorylation ([4]; combined treatment with Compound A and Compound B, western blot (FIG. 3)) | Akt phosphorylation at serine 473 ([4]; western blot (FIG. 12A)) | proliferation of tumor cells harboring PI3K α mutations (human tumor cell lines) | IC50 (MDA-MB-361 cells) | tumor weight in a preclinical breast cancer model (breast cancer model; combined treatment with Compound A and Compound B (FIG. 2)) | reducing tumor volume of a preclinical breast cancer model (breast cancer model; combined treatment with Compound A and rapamycin (FIG. 4)) | inhibition of kinase activity (downstream markers) and tumor growth [5] | IC50 [6]
CS(=O)(=O)N1CCN(Cc2cc3nc(-c4cccc5[nH]ncc45)nc(N4CCOCC4)c3s2)CC1 [Pan-PI3K inhibitor, GDC0941, reference compound] | blocks | reduction in tumor weight | reduced presence of MZB cells | reduced presence | reduction in tumor weight | blocks B cell function in vivo |  |  |  |  |  |  |  |  |  |  |  |  | 
Nc1nc2cc(-c3ccc4ncc(C(=O)N5CCOCC5)n4c3)ccc2o1 [Compound A] | not | reduction in tumor weight |  |  | reduction in tumor weight |  | ~1000 nM | specificity | inhibition | not | reduced inhibition | synergistic effect | inhibition | preferentially inhibits | ~1900 nM | synergistic effect | synergistic effect | decreased activity by comparison to that seen in the MDA derived tumors | ~10 µM

From US9295673B2, “Combination of mTOR inhibitors and P13-kinase inhibitors, and uses thereof” (Intellikine LLC, priority 2011, dated 2016)
